Results: patent publication US11298314B2, “Injectable composition for localized fat reduction without pain, edema, and side effects, and method for preparing same” (AMI PHARM CO., LTD., priority 2017, dated 2022)
Entries after “also recorded” stand apart in the source; their conditions may differ. Read-outs that look alike come from different tables or passages of the source.

How the values were obtained:
3T3-L1 adipocytes = assay: Adipocyte (3T3-L1) reducing effect, MTT assay; format: cell-based; details: for adipocyte-reducing activity compared with DCA 1.0% (Kybella): 96 hours
Method: Tests were performed to compare the adipocyte reducing activity of the PPC single composition and the PPC composition solubilized with bile acids. Differentiated 3T3L-1 adipocyte lines were used to observe adipocyte reduction activity, and cell viability was monitored by MTT assay. […] Materials and methods employed in the following experiments are described below. In the following, % of the composition refers to % (w/v).
The specific test methods are as follows. […] The cells were washed twice with PBS, treated with MTT reagent (50 μl) and left at 37° C. for 2 hours. After removing the supernatant, MTT formazan crystals were dissolved in DMSO and the absorbance was measured at 540 nm using a microplate reader.
The 3T3-L1 adipocyte (ATCC) was cultured in Dulbecco's modified eagle medium (DMEM) (Invitrogen) supplemented with 10% fetal bovine serum, 100 units/ml penicillin and 100 μg/ml streptomycin under the condition of 5% CO2 and 37° C. […] Subsequently, the medium was replaced with DMEM medium containing 1 μg/ml insulin (Sigma), and the culture medium was maintained and changed every 2 to 3 days until the degree of differentiation reaches maximum. If it took more than 7 days, the cells were kept in normal DMEM culture medium until starting the tests. […] After the cells were incubated for 3 hours under the condition of 37° C. and 5% CO2, the MTT solution was removed.

[1] = Formulation stability of PPC injectable preparations: property, transparency, particle size, pH
Method: The particle size was measured using a nano particle size analyzer (Microtrac Wave, MICROTRACT, USA). […] The transparency was measured using a spectrophotometer (CM-3600d, KONICA MINOLTA, JAPAN). The pH was measured with a pH meter (ST3100, OHAUS, GERMANY), and the isotonicity was measured with an osmotic pressure meter (Vapro 5600, Elitech Group, Tokyo, Japan), and viscosity was analyzed using a viscometer (Digital Viscometer CL-2, CAS, Korea).
The washed and sterilized preparation tank was charged with the water for injection (at room temperature), and phosphatidylcholine (PPC) and benzyl alcohol were added thereto, and the mixture was stirred at 200 RPM for 2 hours under the condition of nitrogen pressure, shading and room temperature. After the completion of stirring, the mixture was transferred to an ultra-high pressure homogenizer (Nano Disperser NLM100, Ilshin Autoclave, Korea) with a nitrogen pressure. Ultra-high pressure homogenization (dispersion) was carried out at 12,000 psi for 7 cycles, and the particles were finely pulverized. Then, the pH was adjusted. After filtration through a 0.2 μm filter, the vial was filled and sealed.
Specifically, the water for injection was put into the preparation tank which was cleaned and sterilized (room temperature), and sodium hydroxide was added to the water for injection. Then deoxycholic acid and benzyl alcohol were added, stirred and dissolved. Then, phosphatidylcholine was added thereto, and the mixture was stirred at 200 RPM for about 24 hours under shading, sealing, room temperature (25° C.), and nitrogen pressure. After completion of the stirring, the pH was adjusted (if necessary, with additional sodium hydroxide or hydrochloric acid), and it was filtered through a 0.2 μm filter, and filled into the vial and sealed.
Then glycocholic acid and benzyl alcohol were added, stirred and dissolved. Then, phosphatidylcholine was added thereto, and the mixture was stirred at 200 RPM for about 24 hours under shading, sealing, room temperature (25° C.), and nitrogen pressure. After completion of the stirring, the pH was adjusted (if necessary, with additional sodium hydroxide or 0.001-0.6% of hydrochloric acid), and it was filtered through a 0.2 μm filter, and filled into the vial and sealed.
The formulation stability of the PPC injectable compositions solubilized with glycocholic acid (GCA) in Tables 3 and 4 was evaluated immediately after the preparation and 30 days after the preparation (refrigerated storage).

sole of the rat paws = assay: Measurement of skin lesion (erythema) on rat paw; format: in vivo, Sprague Dawley rats;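 further: grades − to ++++ mean no to extremely severe erythema versus before injection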
Summary of the method: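 Male Sprague Dawley rats (6 weeks, 170–200 g) received 0.1 ml test composition or PBS injected into the paw. Paw thickness measured by caliper before, immediately after, and 1 or 2 h post-injection; sole lesions photographed and graded 0–4.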

inguinal fat pad = details: 0.2 ml s.c. once into inguinal fat pad, 8 days post-injection
[2] = tested on: tissues of the injected area (rat paw); assay: H&E staining histological test (inflammation) of injected rat paw; format: in vivo, Sprague Dawley rats; details: for Inflammation reaction: GCA 0.0, H&E of injected rat paw; for degree of inflammation (H&E) in words: rats sacrificed at 3 hours, injected paw
Method: The tissues of the injected area were dissected, fixed with 10% formalin, and then the specimen was prepared and images were captured using an optical microscope. The degree of inflammation was evaluated as follows.

paw of the rats = assay: Rat paw edema; format: in vivo, Sprague Dawley rats; details: for degree of edema, 1 hour after administration / degree of edema, 2 hours after administration / degree of edema, Immediately after administration: 0.1 ml into rat paw, swelling vs before injection; for degree of edema in words: 2 hours after administration, rat paw
Summary of the method: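 Male Sprague Dawley rats (6 weeks old, 170–200 g) received 0.1 ml of PBS or test composition into the paw. Paw thickness measured by caliper before, immediately after, and 1 or 2 h post-injection; edema graded 0–4, with injection-site skin lesions photographed.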

[3] = tested on: Caspase 3 in 3T3-L1 adipocytes; assay: Caspase 3 activity assay; format: cell-based; details: 0-48 hours; listed as PPC single composition
Method: The Caspase 3 activity assay was performed with the test materials to determine whether the cell death in the result of MTT assay was due to necrosis or apoptosis. The Caspase 3 specifically increases when apoptosis occurs and is a marker of apoptosis. […] The cells were then treated with 50 ul of cell lysis buffer (10 mM Tris-HCl, 10 mM NaH2PO4/NaHPO4, pH 7.5, 130 mM NaCl, 1% Triton X-100 and 10 mM sodium pyrophosphate) and left at 4° C. for […]. The supernatant was collected by centrifugation at 1000× rpm for 1 minute, and protein quantification was performed by BCA method. The 50 μl of reaction buffer (4 mM HEPES, pH 7.5, 10% glycerol, 2 mM dithiothreitol) and 0.5 μl of 4 mM DEVD-p-NA were added to each sample and reacted at 37° C. for 1 hour. Then wavelength was measured with a […] at 405 nm.

mouse paw = assay: In vivo pain: moving distance and moving speed after paw injection; details: 100 ul into paw, 2 hours after administration, 5 minutes; listed as PPC 5.0%
Method: Specifically, 100 μl of each test material was injected into the floor of the paws of the rats, and edema was observed. […] The movement before and after injection of the test material was compared through distance and time. The movement before and after injection was measured using Noldus Video Traking system and compared with moving distance (FIG. 13A) and moving speed (FIG. 13B).
After the edema was confirmed to be the most at 2 hours after administration, the moving distance (cm) and the moving speed (cm/s) for 5 minutes were compared using Noldus Video Traking system.

[4] = PPC single composition 1.25% (w/v)
[5] = PPC single composition 2.50% (w/v)
[6] = PPC single composition 5.00% (w/v)
[7] = PPC single composition 7.50% (w/v)
[8] = PPC single composition 10.0% (w/v)
[9] = PPC single composition 12.5% (w/v)
[10] = PPC single composition 15.0% (w/v)

With “1,2-diacyl-sn-glycero-3-phosphocholine [PPC]” the “adipocyte viability / adipocyte-reducing activity” value (3T3-L1 adipocytes; 24 to 96 hours, various concentrations, listed as PPC single composition) was “reduced adipocyte viability in time and concentration dependent manner”, the “adipocyte-reducing activity compared with DCA 1.0% (Kybella)” value (3T3-L1 adipocytes; listed as PPC 5%) was “equivalent” and the “adipocyte-reducing activity compared with DCA 1.0% (Kybella)” value (3T3-L1 adipocytes; listed as PPC 5.0%) was “similar; also recorded: equivalent”. The “concentration of phosphatidylcholine with no lipolysis effect” value (3T3-L1 adipocytes; FIGS. 7A to 7D) was “less than 0.625 % (w/v)”, the “formulation stability / property in words” value [1] was “poor formulation stability” and the “grade of skin lesion (erythema), 1 hour after administration” value (from here on “grade of skin lesion (erythema), 1 hour”) (sole of the rat paws; [4]) was “−”. For the same substance, the “grade of skin lesion (erythema), 2 hours after administration” value (from here on “grade of skin lesion (erythema), 2 hours”) (sole of the rat paws; [4]) was “−”, the “grade of skin lesion (erythema), Immediately after administration” value (shortened to “grade … Immediately after administration”) (sole of the rat paws; [4]) was “−” and the “grade of skin lesion (erythema), 1 hour” value (sole of the rat paws; [5]) was “−”. For the same substance, the “grade of skin lesion (erythema), 2 hours” value (sole of the rat paws; [5]) was “−”, the “grade … Immediately after administration” value (sole of the rat paws; [5]) was “−” and the “grade of skin lesion (erythema), 1 hour” value (sole of the rat paws; [6]) was “−”. For the same substance, the “grade of skin lesion (erythema), 2 hours” value (sole of the rat paws; [6]) was “−”, the “grade … Immediately after administration” value (sole of the rat paws; [6]) was “−” and the “grade of skin lesion (erythema), 1 hour” value (sole of the rat paws; [7]) was “−”. For the same substance, the “grade of skin lesion (erythema), 2 hours” value (sole of the rat paws; [7]) was “−”, the “grade … Immediately after administration” value (sole of the rat paws; [7]) was “−” and the “grade of skin lesion (erythema), 1 hour” value (sole of the rat paws; [8]) was “−”. The “grade of skin lesion (erythema), 2 hours” value (sole of the rat paws; [8]) was “−”, the “grade … Immediately after administration” value (sole of the rat paws; [8]) was “−” and the “grade of skin lesion (erythema), 1 hour” value (sole of the rat paws; [9]) was “−”. For the same substance, the “grade of skin lesion (erythema), 2 hours” value (sole of the rat paws; [9]) was “−”, the “grade … Immediately after administration” value (sole of the rat paws; [9]) was “−” and the “grade of skin lesion (erythema), 1 hour” value (sole of the rat paws; [10]) was “−”. For the same substance, the “grade of skin lesion (erythema), 2 hours” value (sole of the rat paws; [10]) was “−”, the “grade … Immediately after administration” value (sole of the rat paws; [10]) was “−” and the “inflammation at the site of administration, dermal and epidermal tissues” value (inguinal fat pad) was “no inflammatory cells such as neutrophils”. The “histological change of adipocytes in fat tissue” value (“histological change” below) (inguinal fat pad; listed as PPC 5.0%) was “size of adipocytes was reduced”, the “histological change” value (inguinal fat pad; listed as PPC 15.0%) was “development of macrophages was confirmed around adipocytes” and the “histological change” value (inguinal fat pad; listed as PPC single composition) was “adipocyte apoptosis and degradation were induced in a concentration-dependent manner”. For the same substance, the Inflammation reaction [2, 5] was “−”, the Inflammation reaction [2, 6] was “−” and the Inflammation reaction [2, 7] was “−”. For the same substance, the Inflammation reaction [2, 8] was “+”, the Inflammation reaction [2, 9] was “+” and the Inflammation reaction [2, 10] was “++”. The “degree of inflammation (H&E) in words” value ([2]; listed as PPC 10.0%) was “Mild”, the “degree of inflammation (H&E) in words” value ([2]; listed as PPC 12.5%) was “Mild” and the “degree of inflammation (H&E) in words” value ([2]; listed as PPC 15.0%) was “moderate”. For the same substance, the “degree of edema, 1 hour after administration” value (shortened to “degree of edema, 1 hour”) (paw of the rats; listed as PPC 1.25%) was “+ (mild edema [+, (the degree of swelling was 1-20% compared to before the injection)])”, the “degree of edema, 2 hours after administration” value (shortened to “degree of edema, 2 hours”) (paw of the rats; listed as PPC 1.25%) was “+ (mild edema [+, (the degree of swelling was 1-20% compared to before the injection)])” and the “degree of edema, Immediately after administration” value (“degree of edema, Immediately” below) (paw of the rats; listed as PPC 1.25%) was “+ (mild edema [+, (the degree of swelling was 1-20% compared to before the injection)])”. The “degree of edema, 1 hour” value (paw of the rats; listed as PPC 2.50%) was “+ (mild edema [+, (the degree of swelling was 1-20% compared to before the injection)])”, the “degree of edema, 2 hours” value (paw of the rats; listed as PPC 2.50%) was “+ (mild edema [+, (the degree of swelling was 1-20% compared to before the injection)])” and the “degree of edema, Immediately” value (paw of the rats; listed as PPC 2.50%) was “+ (mild edema [+, (the degree of swelling was 1-20% compared to before the injection)])”. The “degree of edema, 1 hour” value (paw of the rats; listed as PPC 5.00%) was “+ (mild edema [+, (the degree of swelling was 1-20% compared to before the injection)])”, the “degree of edema, 2 hours” value (paw of the rats; listed as PPC 5.00%) was “+ (mild edema [+, (the degree of swelling was 1-20% compared to before the injection)])” and the “degree of edema, Immediately” value (paw of the rats; listed as PPC 5.00%) was “+ (mild edema [+, (the degree of swelling was 1-20% compared to before the injection)])”. For the same substance, the “degree of edema, 1 hour” value (paw of the rats; listed as PPC 7.50%) was “+ (mild edema [+, (the degree of swelling was 1-20% compared to before the injection)])”, the “degree of edema, 2 hours” value (paw of the rats; listed as PPC 7.50%) was “+ (mild edema [+, (the degree of swelling was 1-20% compared to before the injection)])” and the “degree of edema, Immediately” value (paw of the rats; listed as PPC 7.50%) was “++ (moderate edema [++, (the degree of swelling was 20-40% compared to before the injection)])”. The “degree of edema, 1 hour” value (paw of the rats; listed as PPC 10.0%) was “+ (mild edema [+, (the degree of swelling was 1-20% compared to before the injection)])”, the “degree of edema, 2 hours” value (paw of the rats; listed as PPC 10.0%) was “+ (mild edema [+, (the degree of swelling was 1-20% compared to before the injection)])” and the “degree of edema, Immediately” value (paw of the rats; listed as PPC 10.0%) was “++ (moderate edema [++, (the degree of swelling was 20-40% compared to before the injection)])”. The “degree of edema, 1 hour” value (paw of the rats; listed as PPC 12.5%) was “++ (moderate edema [++, (the degree of swelling was 20-40% compared to before the injection)])”, the “degree of edema, 2 hours” value (paw of the rats; listed as PPC 12.5%) was “++ (moderate edema [++, (the degree of swelling was 20-40% compared to before the injection)])” and the “degree of edema, Immediately” value (paw of the rats; listed as PPC 12.5%) was “++ (moderate edema [++, (the degree of swelling was 20-40% compared to before the injection)])”. The “degree of edema, 1 hour” value (paw of the rats; listed as PPC 15.0%) was “++ (moderate edema [++, (the degree of swelling was 20-40% compared to before the injection)])”, the “degree of edema, 2 hours” value (paw of the rats; listed as PPC 15.0%) was “++ (moderate edema [++, (the degree of swelling was 20-40% compared to before the injection)])” and the “degree of edema, Immediately” value (paw of the rats; listed as PPC 15.0%) was “+++ (severe edema [+++, (the degree of swelling was 40-60% compared to before the injection)])”. For the same substance, the “degree of edema in words” value (paw of the rats; listed as PPC 12.5%) was “moderate”, the “degree of edema in words” value (paw of the rats; listed as PPC 15.0%) was “moderate” and the caspase-3 activity [3] was “time-dependent effect of inducing caspase-3 activity to a considerable level; also recorded: time-dependent effect of inducing caspase-3 activity to a considerable extent”. The “change of moving distance and moving speed” value (mouse paw) was “not changed or slightly increased; also recorded: wasn't changed or was slightly increased”.
